Experiments:
human JAK1 = molecular target: T1, human JAK1 (Homo sapiens, UniProt P23458); test: JAK1 inhibition assay (polyGT substrate / Ulight-JAK1 peptide); type: biochemical; details: recombinant human JAK1 catalytic domain; polyGT or Ulight-JAK1 peptide assay
T1 construct: catalytic domain, amino acids 866-1154; catalog number PV4774; purchased Invitrogen PV4774
Procedure: 1.1 JAK1 Inhibition Assay
1.1.1 JAK1 Assay polyGT Substrate
After 45 min at 30° C., reactions are stopped by adding of 25 μL/well of 150 mM phosphoric acid. […] Plates are washed 6 times with 300 μL per well of a 75 mM phosphoric acid solution and the bottom of the plates is sealed. 40 μL/well of Microscint-20 is added, the top of the plates is sealed and readout is performed using the Topcount (Perkin Elmer). Kinase activity is calculated by subtracting counts per min (cpm) obtained in the presence of a positive control inhibitor (10 μM staurosporine) from cpm obtained in the presence of vehicle. The ability of a test compound to inhibit this activity is determined as:
(§1) Percentage inhibition=((cpm determined for sample with test compound present−cpm determined for sample with positive control inhibitor)divided by(cpm determined in the presence of vehicle−cpm determined for sample with positive control inhibitor))*100.
Dose dilution series are prepared for the compounds enabling the testing of dose-response effects in the JAK1 assay and the calculation of the IC50 for each compound.
1.1.2 JAK1 Ulight-JAK1 Peptide Assay
(§2) After 60 min at room temperature, reactions were stopped by adding 20 μL/well of detection mixture (1× detection buffer (Perkin Elmer, catalog number CR97-100C), 0.5 nM Europium-anti-phosphotyrosine (PT66) (Perkin Elmer, catalog number AD0068), 10 mM EDTA). […] Kinase activity was calculated by subtracting relative fluorescence units (RFU) obtained in the presence of a positive control inhibitor (10 μM staurosporine) from RFU obtained in the presence of vehicle. The ability of a test compound to inhibit this activity was determined as:
(§3) Percentage inhibition=((RFU determined for sample with test compound present−RFU determined for sample with positive control inhibitor)divided by(RFU determined in the presence of vehicle−RFU determined for sample with positive control inhibitor))*100.
(§4) Dose dilution series were prepared for the compounds enabling the testing of dose-response effects in the JAK1 assay and the calculation of the IC50 for the compound. Each compound is routinely tested at concentration of 20 μM followed by a 1/5 serial dilution, 10 points in a final concentration of 1% DMSO. […] The data are expressed as the average IC50 from the assays±standard error of the mean.

human JAK2 = molecular target: T2, human JAK2 (Homo sapiens, UniProt O60674); test: JAK2 inhibition assay (polyGT substrate / Ulight-JAK1 peptide); type: biochemical; details: recombinant human JAK2 catalytic domain; polyGT or Ulight-JAK1 peptide assay
T2 construct: catalytic domain (amino acids 808-1132; catalog number PV4210); GST; purchased Invitrogen PV4210
T2 sequence (O60674 808-1132): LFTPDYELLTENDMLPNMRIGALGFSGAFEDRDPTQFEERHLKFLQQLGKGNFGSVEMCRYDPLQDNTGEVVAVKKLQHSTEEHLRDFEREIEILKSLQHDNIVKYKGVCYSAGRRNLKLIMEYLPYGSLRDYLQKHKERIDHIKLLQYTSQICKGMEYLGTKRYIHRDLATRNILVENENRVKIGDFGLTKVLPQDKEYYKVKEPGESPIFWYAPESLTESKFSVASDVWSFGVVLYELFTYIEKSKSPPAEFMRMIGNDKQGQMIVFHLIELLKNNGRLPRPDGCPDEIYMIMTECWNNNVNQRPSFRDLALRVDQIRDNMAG
Procedure: 1.2 JAK2 Inhibition Assay
1.2.1 JAK2 Assay polyGT Substrate
0.025 mU of JAK2 is incubated with 2.5 μg polyGT substrate (Sigma catalog number P0275) in kinase reaction buffer (5 mM MOPS pH 7.5, 9 mM MgAc, 0.3 mM EDTA, 0.06% Brij and 0.6 mM DTT, 1 μM non-radioactive ATP, 0.25 μCi ^33P-gamma-ATP (GE Healthcare, catalog number AH9968) final concentrations) with or without 5 μL containing test compound or vehicle (DMSO, 1% final concentration), in a total volume of 25 μL, in a polypropylene 96-well plate (Greiner, V-bottom). After 90 min at 30° C., reactions are stopped by adding of 25 μL/well of 150 mM phosphoric acid. […] Plates are washed 6 times with 300 μL per well of a 75 mM phosphoric acid solution and the bottom of the plates is sealed. 40 μL/well of Microscint-20 is added, the top of the plates is sealed and readout is performed using the Topcount (Perkin Elmer). Kinase activity is calculated by subtracting counts per min (cpm) obtained in the presence of a positive control inhibitor (10 μM staurosporine) from cpm obtained in the presence of vehicle. The ability of a test compound to inhibit this activity is determined as:
as §1
Dose dilution series are prepared for the compounds enabling the testing of dose-response effects in the JAK2 assay and the calculation of the IC50 for each compound.
1.2.2 JAK2 Ulight-JAK1 Peptide Assay
as §2, §3
as §4, with “are” for “were”, “compound” for “the compounds”, “JAK2” for “JAK1”

T1 sequence (P23458 866-1154): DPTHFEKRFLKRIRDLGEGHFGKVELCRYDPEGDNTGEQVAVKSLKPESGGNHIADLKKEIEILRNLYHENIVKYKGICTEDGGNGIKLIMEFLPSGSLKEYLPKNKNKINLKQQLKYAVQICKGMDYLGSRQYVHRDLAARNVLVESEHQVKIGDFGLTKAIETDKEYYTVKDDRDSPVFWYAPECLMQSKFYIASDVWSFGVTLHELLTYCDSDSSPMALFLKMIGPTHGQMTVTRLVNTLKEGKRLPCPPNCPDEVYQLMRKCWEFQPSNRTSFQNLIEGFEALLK

CCN(c1ccc2ocnc2c1)c1cc2c(cn1)ncn2C [Compound 3, N-ethyl-N-(1-methyl-1H-imidazo[4,5-c]pyridin-6-yl)benzo[d]oxazol-5-amine]
IC50 (human JAK1): > 1 µM | IC50 (human JAK2): > 1 µM

CCN(c1ccc2oc(C)nc2c1)c1cc2c(cn1)ncn2C [Compound 6, N-ethyl-2-methyl-N-(1-methyl-1H-imidazo[4,5-c]pyridin-6-yl)benzo[d]oxazol-5-amine]
IC50 (human JAK1): 0.501 to 1 µM | IC50 (human JAK2): > 1 µM

CCN(c1ccc2c(ccn2C)c1)c1cc2c(cn1)ncn2C [Compound 8, N-ethyl-1-methyl-N-(1-methyl-1H-indol-5-yl)-1H-imidazo[4,5-c]pyridin-6-amine]
IC50 (human JAK1): > 1 µM | IC50 (human JAK2): 0.101 to 0.5 µM

CCN(c1cccc(C(=O)c2ccccc2)c1)c1cc2c(cn1)ncn2C [Compound 9, (3-(ethyl(1-methyl-1H-imidazo[4,5-c]pyridin-6-yl)amino)phenyl)(phenyl) methanone]
IC50 (human JAK1): > 1 µM | IC50 (human JAK2): > 1 µM

CCN(c1ccc2sc(C)nc2c1)c1cc2c(cn1)ncn2C [Compound 10, N-ethyl-2-methyl-N-(1-methyl-1H-imidazo[4,5-c]pyridin-6-yl)benzo[d]thiazol-5-amine]
IC50 (human JAK1): > 1 µM | IC50 (human JAK2): > 1 µM

CCN(c1cccc(Oc2ccccc2)c1)c1cc2c(cn1)ncn2C [Compound 11, N-ethyl-1-methyl-N-(3-phenoxyphenyl)-1H-imidazo[4,5-c]pyridin-6-amine]
IC50 (human JAK1): 0.101 to 0.5 µM | IC50 (human JAK2): > 1 µM

CCN(c1cccc(C(O)c2ccccc2)c1)c1cc2c(cn1)ncn2C (stereo not shown) [Compound 12, (3-(ethyl(1-methyl-1H-imidazo[4,5-c]pyridin-6-yl)amino)phenyl)(phenyl) MeOH]
IC50 (human JAK1): 0.501 to 1 µM | IC50 (human JAK2): > 1 µM

CCN(c1ccc(CO)cc1)c1cc2c(cn1)ncn2C [Compound 13, (4-(ethyl(1-methyl-1H-imidazo[4,5-c]pyridin-6-yl)amino)phenyl)MeOH]
IC50 (human JAK1): 0.501 to 1 µM | IC50 (human JAK2): > 1 µM

CN(c1ccc(OCc2ccccc2)cc1)c1cc2c(cn1)ncn2C [Compound 14, N-(4-(benzyloxy)phenyl)-N,1-dimethyl-1H-imidazo[4,5-c]pyridin-6-amine]
IC50 (human JAK1): > 1 µM | IC50 (human JAK2): > 1 µM

Cc1ccccc1N(C)c1cc2c(cn1)ncn2C [Compound 15, N,1-dimethyl-N-o-tolyl 1H-imidazo[4,5-c]pyridin-6-amine]
IC50 (human JAK1): 0.101 to 0.5 µM | IC50 (human JAK2): > 1 µM

CN(c1ccc(OCC2CCCO2)cc1)c1cc2c(cn1)ncn2C (stereo not shown) [Compound 18, N,1-dimethyl-N-(4-((tetrahydrofuran-2-yl)methoxy)phenyl)-1H-imidazo[4,5-c]pyridin-6-amine]
IC50 (human JAK1): 0.501 to 1 µM | IC50 (human JAK2): > 1 µM

CN(c1ccc(OCCO)cc1)c1cc2c(cn1)ncn2C [Compound 19, 2-(4-(methyl(1-methyl-1H-imidazo[4,5-c]pyridin-6-yl)amino)phenoxy)ethanol]
IC50 (human JAK1): 0.101 to 0.5 µM | IC50 (human JAK2): > 1 µM

Cc1noc(C)c1COc1ccc(N(C)c2cc3c(cn2)ncn3C)cc1 [Compound 20, N-(4-((3,5-dimethylisoxazol-4-yl)methoxy)phenyl)-N,1-dimethyl-1H-imidazo[4,5-c]pyridin-6-amine]
IC50 (human JAK1): > 1 µM | IC50 (human JAK2): > 1 µM

CC(C)CCOc1ccc(N(C)c2cc3c(cn2)ncn3C)cc1 [Compound 21, N-(4-(isopentyloxy)phenyl)-N,1-dimethyl-1H-imidazo[4,5-c]pyridin-6-amine]
IC50 (human JAK1): 0.501 to 1 µM | IC50 (human JAK2): > 1 µM

CCCOc1ccc(N(C)c2cc3c(cn2)ncn3C)cc1 [Compound 22, N,1-dimethyl-N-(4-propoxyphenyl)-1H-imidazo[4,5-c]pyridin-6-amine]
IC50 (human JAK1): 0.101 to 0.5 µM | IC50 (human JAK2): 0.501 to 1 µM

CCOCCOc1ccc(N(C)c2cc3c(cn2)ncn3C)cc1 [Compound 23, N-(4-(2-ethoxyethoxy)phenyl)-N,1-dimethyl-1H-imidazo[4,5-c]pyridin-6-amine]
IC50 (human JAK1): 0.501 to 1 µM | IC50 (human JAK2): > 1 µM

CN(c1ccc(OCC2CC2)cc1)c1cc2c(cn1)ncn2C [Compound 24, N-(4-(cyclopropylmethoxy)phen-yl)-N,1-dimethyl-1H-imidazo[4,5-c]pyridin-6-amine]
IC50 (human JAK1): 0.101 to 0.5 µM | IC50 (human JAK2): > 1 µM

CN(c1cc2c(cn1)ncn2C)c1ccccc1C(F)(F)F [Compound 36, N,1-dimethyl-N-(2-(trifluoromethyl)phenyl)-1H-imidazo[4,5-c]pyridin-6-amine]
IC50 (human JAK1): > 1 µM | IC50 (human JAK2): > 1 µM

CCc1ccccc1N(c1cc2c(cn1)ncn2C)C1CC1 [Compound 37, N-Cyclopropyl-N-(2-ethylphenyl)-1-methyl-1H-imidazo[4,5-c]pyridin-6-amine]
IC50 (human JAK1): 0.101 to 0.5 µM | IC50 (human JAK2): > 1 µM

Cc1cc(C(=O)O)ccc1N(C)c1cc2c(cn1)ncn2C [Compound 40, 3-methyl-4-(methyl(1-methyl-1H-imidazo[4,5-c]pyridin-6-yl)amino)benzoic acid]
IC50 (human JAK1): > 1 µM | IC50 (human JAK2): > 1 µM

CN(c1cc2c(cn1)ncn2C)c1ccccc1C#N [Compound 41, 2-(Methyl(1-methyl-1H-imidazo[4,5-c]pyridin-6-yl)amino)benzonitrile]
IC50 (human JAK1): > 1 µM | IC50 (human JAK2): > 1 µM

COc1ccccc1N(C)c1cc2c(cn1)ncn2C [Compound 42, N-(2-methoxyphenyl)-N,1-dimethyl-1H-imidazo[4,5-c]pyridin-6-amine]
IC50 (human JAK1): 0.101 to 0.5 µM | IC50 (human JAK2): > 1 µM

COc1ccc(COc2cccc(N(C)c3cc4c(cn3)ncn4C)c2C)cc1 [Compound 44, N-(3-(4-methoxybenzyloxy)-2-methylphenyl)-N,1-dimethyl-1H-imidazo[4,5-c]pyridin-6-amine]
IC50 (human JAK1): 0.501 to 1 µM | IC50 (human JAK2): > 1 µM

COc1ccc(N(C)c2cc3c(cn2)ncn3C)c(C)c1 [Compound 45, N-(4-Methoxy-2-methylphenyl)-N,1-dimethyl-1H-imidazo[4,5-c]pyridin-6-amine]
IC50 (human JAK1): 0.101 to 0.5 µM | IC50 (human JAK2): > 1 µM

Cc1c(O)cccc1N(C)c1cc2c(cn1)ncn2C [Compound 46, 2-methyl-3-(methyl(1-methyl-1H-imidazo[4,5-c]pyridin-6-yl)amino)phenol]
IC50 (human JAK1): > 1 µM | IC50 (human JAK2): > 1 µM

CN(c1cc2c(cn1)ncn2C)c1ccccc1OC(F)(F)F [Compound 49, N,1-dimethyl-N-(2-(trifluoromethoxy)phenyl)-1H-imidazo[4,5-c]pyridin-6-amine]
IC50 (human JAK1): 0.501 to 1 µM | IC50 (human JAK2): > 1 µM

COCCNC(=O)c1ccc(N(C)c2cc3c(cn2)ncn3C)c(C)c1 [Compound 50, N-(2-methoxyethyl)-3-methyl-4-(methyl(1-methyl-1H-imidazo[4,5-c]pyridin-6-yl)amino)benzamide]
IC50 (human JAK1): > 1 µM | IC50 (human JAK2): > 1 µM

Cc1cc(OCC(=O)N(C)C)ccc1N(C)c1cc2c(cn1)ncn2C [Compound 51, N,N-dimethyl-2-(3-methyl-4-(methyl(1-methyl-1H-imidazo[4,5-c]pyridin-6-yl)amino)phenoxy)acetamide]
IC50 (human JAK1): > 1 µM | IC50 (human JAK2): > 1 µM

Cc1cc(OCCN2CCCC2)ccc1N(C)c1cc2c(cn1)ncn2C [Compound 52, N,1-dimethyl-N-(2-methyl-4-(2-(pyrrolidin-1-yl)ethoxy)phenyl)-1H-imidazo[4,5-c]pyridin-6-amine]
IC50 (human JAK1): 0.501 to 1 µM | IC50 (human JAK2): > 1 µM
